In general, IC50 refers to the concentration that inhibits the measured activity by half. As usually defined, the half-life is the time needed for the level to fall by half in the phase considered.

Four compounds from ChEMBL document CHEMBL5034036, “Aryloxy Pivaloyloxymethyl Prodrugs as Nucleoside Monophosphate Prodrugs” (J Med Chem, 2021) can be followed below.

For data set [1], the system named is MCF7. The data set is described as follows: Cytotoxicity against human MCF7 cells assessed as inhibition of cell proliferation measured after 24 hrs by MTT assay. Format: functional, cell-based. To be noted: MCF7, 24 h. A general note: Tetrazolium assays rely on reduction of a dye to a coloured formazan, in cell work by metabolically active cells.
The subject of data set [2] is A549. Briefly: Cytotoxicity against human A549 cells after 48 hrs measured by MTT assay. To be noted: A549, 48 h. Format: functional, cell-based.
Data set [3] relates to A549. The data set is described as follows: Cytotoxicity against human A549 cells after 24 hrs measured by MTT assay. As to conditions: A549, 24 h. Type of data set: functional, cell-based.
Data set [4] concerns MCF7. Briefly: Cytotoxicity against human MCF7 cells assessed as inhibition of cell proliferation measured after 48 hrs by MTT assay. Format: functional, cell-based. As to conditions: MCF7, 48 h.
Data set [5] is described as follows: Serum stability of the compound in human serum assessed as half life measured by 31P-NMR analysis. Type of data set: ADME, cell-free.
Data set [6] in a line: Drug metabolism in human serum assessed as metabolite B formation by 31P-NMR analysis. Type of data set: ADME, cell-free.
Data set [7] can be described thus: Drug metabolism assessed as recombinant carboxypeptidase Y-mediated metabolite formation measured measured by 31P-NMR analysis. As to conditions: saccharomyces cerevisiae. Type of data set: ADME.
The next data set concerns the target T1, Liver carboxylesterase (Sus scrofa, UniProt Q29550).
T1 sequence (Q29550 whole entry): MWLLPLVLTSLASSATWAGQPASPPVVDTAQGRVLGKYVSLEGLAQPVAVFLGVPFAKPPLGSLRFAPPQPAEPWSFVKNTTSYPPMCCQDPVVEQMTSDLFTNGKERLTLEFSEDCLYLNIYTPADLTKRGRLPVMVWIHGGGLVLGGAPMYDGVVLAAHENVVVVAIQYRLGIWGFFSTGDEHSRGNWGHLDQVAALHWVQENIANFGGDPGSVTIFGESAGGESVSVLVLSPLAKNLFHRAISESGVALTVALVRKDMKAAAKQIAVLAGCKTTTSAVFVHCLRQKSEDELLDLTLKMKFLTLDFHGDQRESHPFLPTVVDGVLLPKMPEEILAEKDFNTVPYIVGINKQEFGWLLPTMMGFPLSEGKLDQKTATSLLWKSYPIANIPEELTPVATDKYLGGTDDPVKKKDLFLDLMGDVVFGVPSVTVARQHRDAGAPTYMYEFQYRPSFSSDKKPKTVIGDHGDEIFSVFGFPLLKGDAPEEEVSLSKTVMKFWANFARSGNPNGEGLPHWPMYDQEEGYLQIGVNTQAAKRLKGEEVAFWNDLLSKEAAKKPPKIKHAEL
The data set is described as follows: Stability in porcine liver esterase assessed as intact compound measured by NMR analysis. Format: ADME. To be noted: pig.

For `O=c1[nH]c(=O)n([C@H]2C[C@H](O)[C@@H](CO)O2)cc1F` [FLOXURIDINE], the IC50 in the data set on MCF7 [1] is greater than 100 µM; in the data set on A549 [2], greater than 100 µM; in the data set on A549 [3], greater than 100 µM; with MCF7 [4], 46.9 µM.

With `COC(=O)[C@H](C)NP(=O)(OC[C@H]1O[C@@H](n2cc(F)c(=O)[nH]c2=O)C[C@@H]1O)Oc1ccccc1` (stereo partly drawn), the IC50 in the data set with MCF7 [1] was greater than 100 µM; in the data set with A549 [2], 36 µM; in the data set on A549 [3] it was 69.5 µM; with MCF7 [4] it was 84.8 µM.

`CC(C)(C)C(=O)OCOP(=O)(OC[C@H]1O[C@@H](n2cc(F)c(=O)[nH]c2=O)C[C@@H]1O)Oc1cccc2ccccc12` (stereo partly drawn): the IC50 in the data set on MCF7 [1] amounted to 28.8 µM; in the data set with A549 [2] it was 34.5 µM; with A549 [3], 52.5 µM; in the data set with MCF7 [4] it was 35.5 µM.

For the compound `CC(C)(C)C(=O)OCOP(=O)(OC[C@H]1O[C@@H](n2cc(F)c(=O)[nH]c2=O)C[C@@H]1O)Oc1ccccc1` (stereo partly drawn), the results for the IC50 in the data set with MCF7 [1] and in the data set with MCF7 [4] were 63.6 µM and 13.1 µM, respectively. For the same compound, the half-life in data set [5] was no less than 12 h. Further, the Drug metabolism entry in data set [6] is “Metabolite_Detected”; in data set [7], “Metabolite_Notdetected”. On Liver carboxylesterase, the Stability result was “Stable”.
